Among the data in ChEMBL document CHEMBL3272187, “Synthesis of N-hydroxyacetaminophen, a postulated toxic metabolite of acetaminophen, and its phenolic sulfate conjugate” (J Med Chem, 1978) are half-life and Stability values, retold here.

The structures appear in SMILES notation.

Holding throughout (type): physicochemical
A short description of series [1]: Aqueous stability of the compound in 100 mM Na2HPO4 buffer assessed as half life at 2 mM at pH 7.2 at 37 degC by ferric chloride assay.
Series [2] is described as follows: Aqueous stability of the compound in 100 mM HCl buffer assessed as half life at 2 mM at pH 1.5 at 37 degC by ferric chloride assay.
Series [3] can be described thus: Aqueous stability of the compound in 100 mM Na2HPO4 buffer assessed as half life at 2 mM at pH 6.6 at 37 degC by ferric chloride assay.
Series [4] can be described thus: Aqueous stability of the compound in 100 mM Na2HPO4 buffer assessed as half life at 2 mM at pH 8.0 at 37 degC by ferric chloride assay.
Series [5] in a line: Aqueous stability of the compound in 100 mM Na2HPO4 buffer assessed as half life at 2 mM at pH 7.0 at 37 degC by ferric chloride assay.
Series [6] can be described thus: Aqueous stability of the compound in 100 mM NaOH buffer at 2 mM at pH 12.7 at 37 degC by ferric chloride assay. To be noted: pH 12.7, 2000 µM.
Series [7] can be described thus: Aqueous stability of the compound in 100 mM Na2HPO4 buffer assessed as half life at 2 mM at pH 8.5 at 37 degC by ferric chloride assay.

In general, half-life refers to the time in which the quantity being followed falls by half. For `CC(=O)N(O)c1ccc(O)cc1`, the half-life at 2000 µM in series [1] was determined as 0.35 h; in series [2] it was 18.3 h; in series [3], 2.5 h; in series [4] it was 9.8 min; in series [5], 1.1 h. Further, the Stability result in series [6] is given as “Stable”.
As for `CC(=O)N(O)c1ccc(OS(=O)(=O)[O-])cc1.[K+]`, the half-life at 2000 µM in series [7] was 217 h; in series [2], 15.2 h. In addition, in series [6], the Stability result is reported as “Stable”.
